From patent US10933077B2, “TLR4 inhibitors for the treatment of human infectious and inflammatory disorders” (UNIVERSITY OF PITTSBURGH—OF THE COMMONWEALTH SYSTEM OF …, priority 2010, dated 2021)
Structures can show the parent of a compound that is named as a salt.

Experiments:
Assay type in all cases: in vivo
[1] = tested on: LPS-induced NFkB activation; test: NFkB-luciferase reporter mice assay (LPS-induced endotoxemia); details: for inhibition of LPS-induced NFkB activation: 20 nanomoles test compound i.p. 30 minutes prior to LPS 2 mg/kg, 6 hrs, IVIS luciferase imaging
Protocol: (§1) Compound preparation and delivery. All 65 identified compounds were received in solid form and stored at 4° C. until use. Stock solutions of each compound were made by dissolving the appropriate amount of each compound in dimethyl sulfoxide (DMSO) to yield a concentration of 10 mM. Immediately prior to injection into experimental animals, the compounds were diluted to an experimental concentration of 100 uM in phosphate-buffered saline (PBS). Total concentration of DMSO in the final diluted drug was 1%. Compounds were closely examined to insure that no precipitate formed prior to injection and were stored on ice until injection. All compounds were given via intraperitoneal (i.p.) injection in a total volume of 200 ul using a 1 cc syringe and 27 gauge needle. In all experiments listed below, the compounds were delivered to the experimental mice 30 minutes prior to injection with lipopolysaccharide (LPS) to induce endotoxemia. Control animals not receiving compound received 1% DMSO dissolved in PBS. Following drug injection, the mice were observed closely in their cages for signs of immediate toxicity or adverse reaction to the drug, including but not limited to piloerection, tachypnea, bleeding, abnormal or aggressive behavior, signs of altered mental status, and level of activity.
(§2) Induction of endotoxemia. All mice were housed and cared for at the Rangos Research Center, Children's Hospital of Pittsburgh (Pittsburgh, Pa.). All experiments were approved by the Children's Hospital of Pittsburgh Animal Care Committee and by the Institutional Review Board of the University of Pittsburgh. Swiss Webster (CFW) and NFkB-luciferase reporter mice were obtained from The Jackson Laboratory. Throughout the course of all experiments, mice were housed 4 per cage with access to food, water, and standard bedding. Endotoxemia was induced in all experiments by i.p. injection of LPS (Escherichia coli 0111:B4 purified by gel filtration chromatography, >99% pure, Sigma-Aldrich) at a dose of 2 mg/kg for 6 hours. At the end of each experiment, all animals were euthanized by CO2 hypoxia and cervical dislocation.
NFkB-luciferase reporter mice assay. NFkB-luciferase reporter mice, in which the […], were subjected to endotoxemia with or without pretreatment with experimental compounds. The experimental compounds treated by this assay were compounds 1-6, with compounds 1-3 tested first and compounds 4-6 tested later. For both experiments, the mice were 6 weeks old on the date of the experiment. […] After whole body imaging, an additional injection of luciferin is given and animals were euthanized, organs were harvested, and the extent of NFkB activation within various tissues was further analyzed by an additional luminescence image of the individual organs. […]

iNOS mRNA = test: CFW-NEC mouse model (formula feeding), iNOS mRNA levels; details: 1 mg/kg, i.p., once daily for the first four days of the five day model; relative to RPLO
Description: Inducible nitric oxide synthase (iNOS) is associated with necrotizing enterocolitis (NEC) in human infants. In a second set of experiments, the CFW-NEC mouse model system for NEC was used to evaluate the effect of various compounds from TABLES 1 and 2 above on iNOS mRNA levels. A model system for NEC was induced in newborn mouse pups by formula feeding, where control animals were breast-fed (Sodhi et al., 2010, Gastroenterol. 138(1):185-196; Richardson et al., 2010, Gastroenterol. 139(3):904-917). […] Note that RPLO stands for 505 ribosomal subunit protein L15, an acknowledged housekeeping gene, which means that it is a constitutive gene expressed at relatively constant levels by all cells and is thus used as a reference for comparing other genes which may vary under experimental conditions. In this same model system, levels of TLR4 mRNA levels were also evaluated. […] In contrast, the level of TLR4 was not increased in FF animals treated with C34 (1 mg/kg, i.p. once daily for the first four days of the five day model) and indeed mRNA levels were 30 percent below normal (see FIG. 14).

TLR4 = biological target: T1, TLR4 (Mus musculus, UniProt Q9JHF9+Q9QUK6); test: CFW endotoxemia assay (observation of behavior and phenotype after LPS); details: CFW mice, 20 nanomoles compound i.p. 30 minutes prior to LPS 2 mg/kg, 6 hours; for Observation (Compound “Hits”): listed as “Hits”; for Observation (Compound “Negatives”): listed as “Negatives”
T1 construct: Swiss Webster (CFW) and NFkB-luciferase reporter mice were obtained from The Jackson Laboratory; tissue The Jackson Laboratory; host or cells: whole live Swiss Webster (CFW) mice
T1 sequence (Q9QUK6 26-835): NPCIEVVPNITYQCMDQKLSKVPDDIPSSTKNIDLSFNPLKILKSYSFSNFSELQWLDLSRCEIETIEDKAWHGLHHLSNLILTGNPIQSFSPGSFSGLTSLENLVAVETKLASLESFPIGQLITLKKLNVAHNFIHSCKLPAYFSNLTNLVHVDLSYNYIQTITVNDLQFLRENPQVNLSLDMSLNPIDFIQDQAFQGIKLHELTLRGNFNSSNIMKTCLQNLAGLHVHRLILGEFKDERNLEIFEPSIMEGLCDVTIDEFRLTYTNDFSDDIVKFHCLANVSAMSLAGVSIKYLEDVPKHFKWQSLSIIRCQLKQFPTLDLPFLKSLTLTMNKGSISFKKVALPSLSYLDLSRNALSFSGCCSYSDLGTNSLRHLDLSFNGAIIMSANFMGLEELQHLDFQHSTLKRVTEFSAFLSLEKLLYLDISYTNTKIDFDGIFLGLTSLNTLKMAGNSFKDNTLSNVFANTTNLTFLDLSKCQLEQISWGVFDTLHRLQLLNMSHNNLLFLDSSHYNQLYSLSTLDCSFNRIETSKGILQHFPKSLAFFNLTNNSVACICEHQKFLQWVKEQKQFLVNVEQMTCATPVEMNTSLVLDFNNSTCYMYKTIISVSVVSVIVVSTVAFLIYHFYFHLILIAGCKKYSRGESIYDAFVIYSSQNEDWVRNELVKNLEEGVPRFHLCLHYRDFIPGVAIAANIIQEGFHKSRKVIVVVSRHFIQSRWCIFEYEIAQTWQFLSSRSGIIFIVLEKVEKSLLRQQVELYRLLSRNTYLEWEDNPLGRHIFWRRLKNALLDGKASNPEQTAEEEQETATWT
T1 sequence (Q9JHF9 19-160): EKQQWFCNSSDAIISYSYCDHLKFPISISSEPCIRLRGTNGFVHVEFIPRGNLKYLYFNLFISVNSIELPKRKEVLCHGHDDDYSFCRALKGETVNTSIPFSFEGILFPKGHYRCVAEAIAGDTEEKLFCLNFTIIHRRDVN
Protocol: as §1, §2
CFW endotoxemia assay. In order to effectively screen the entire compound list, the remaining compounds (7-60) were screened in a model of endotoxemia using CFW mice. Three separate experiments were performed: First, Compound 7 along with a repeat of compound 4 (n=3 mice per compound, mice age 5 weeks) were tested. Controls were saline injection alone (n=1), LPS 2 mg/kg 6 hrs (n=2). Second, compounds 3, 4, 6, 8-32 were tested (n=1 mouse each, 3 week old mice). Controls were saline injection alone (n=1), LPS 2 mg/kg 6 hrs (n=2), LPS 10 mg/kg 6 hrs (n=2), Bay 11 pretreatment 20 mg/kg for 30 minutes prior to LPS 2 mg/kg 6 hrs. Third, compounds 8, 16, 33-60 were tested (n=1 mouse each, 3 week old mice). Controls were saline injection alone (n=1), LPS 2 mg/kg 6 hrs (n=2), Bay 11 pretreatment 20 mg/kg for 30 minutes prior to LPS 2 mg/kg 6 hrs. Following 6 hours of endotoxemia, mice from the second and third experiments were observed within their cages and videotaped to document behavior and phenotypic differences to assess for an inhibitory effect of compound pretreatment on the effects of LPS. Mice were identified by a number previously placed using permanent marker on their tails. The degree of piloerection, tachypnea, location in the cage (center of cage versus corners), degree of activity, and behavior relative to other animals was observed and documented via video for each mouse.
Less activity, tachypnea, and piloerection are considered symptomatic of endotoxemia, so a decrease in these is consistent with TLR inhibition by the administered compound. Note that compounds listed as negatives may still be T4Ics at other concentrations or conditions.

**Q.** `CC(=O)NC1C(OP(=O)(O)O)OC(CO)C(O)C1O` (centres unmarked) [Compound 4, 3-acetamido-4,5-dihydroxy-6-(hydroxymethyl)tetrahydro-2H-pyran-2-yl dihydrogen phosphate, sodium salt] was tested. Which “inhibition of LPS-induced NFkB activation” value ([1]; phosphate, sodium salt) did it give?
**A.** Its value is “greatest inhibitory activity”.

**Q.** Which “increase of iNOS mRNA level in formula-fed (FF) pups” value (iNOS mRNA) does the source give for `CC(=O)NC1C(O)OC(CO)[C@@H](O[C@@H]2OC(CO)[C@H](O)C(O)C2O)C1O` (some centres unmarked) [Compound 27, 2-(acetylamino)-2-deoxy-4-O-hexopyranosylhexopyranose] here?
**A.** Its value is “much less”.

**Q.** How did the “NFκB signalling (luciferase imaging)” value ([1]; LPS 2 mg/kg plus compound 1 mg/kg i.p.) turn out when `CC(=O)N[C@H]1C(O)O[C@H](CO)[C@H](O)[C@@H]1O.O` (stereo partly drawn) [Compound 16, 2-(acetylamino)-2-deoxy-D-galactopyranose hydrate] was run?
**A.** Its value is “reduced NFκB signalling”.

**Q.** How did the “inhibition of LPS-induced NFkB activation” value [1] turn out when `CCCCCCCCCCCCCCCCCCCCCCCCCC(=O)NC(COC1OC(CO)C(O)C(O)C1O)C(O)C(O)CCCCCCCCCCCCCC` [Compound 2, N-{(1S,2S,3R)-1-[(beta-L-glycero-hexopyranosyloxy)methyl]-2,3-dihydroxyheptadecyl}hexacosanamide] was run?
**A.** Its value is “exception”.

**Q.** Which “Observation (Compound “Hits”)” value (TLR4) does the source give for `CC(=O)N[C@H]1[C@H](O[C@H]2[C@H](O)[C@@H](O)[C@H](O[C@H]3[C@H](O)[C@@H](CO)OC(O)[C@@H]3NC(C)=O)O[C@@H]2C(=O)O)O[C@H](CO)[C@@H](O)[C@H]1O[C@H]1O[C@H](C(=O)O)[C@@H](O)[C@H](O)[C@H]1O` (stereo partly drawn) [Compound 42, 2-(acetylamino)-3-O-{4-O-[2-(acetylamino)-2-deoxy-3-O-alpha-D-xylo-hexopyranuronosyl-beta-D-ribo-hexopyranosyl]-beta-D-xylo-hexopyranuronosyl}-2-deoxy-D-glucopyranose] here?
**A.** Its value is “Less tachypnea, more mobile”.

**Q.** For `CC(=O)N[C@H]1[C@@H](OP(=O)([O-])OP(=O)([O-])OC[C@H]2O[C@@H](n3ccc(=O)[nH]c3=O)[C@H](O)[C@@H]2O)O[C@H](CO)[C@@H](O)[C@@H]1O.[Na+].[Na+]` [Compound 41, Uridine 5′-diphospho-N-acetylglucosamine sodium salt], which “Observation (Compound “Negatives”)” value (TLR4) is on record?
**A.** Its value is “Less active, huddled in corner”.

**Q.** Which “Observation (Compound “Hits”)” value (TLR4) does the source give for `C=CCO[C@@H]1O[C@H](CO)[C@@H](O)[C@H](O)[C@H]1NC(C)=O` [Compound 50, allyl 2-(acetylamino)-2-deoxy-beta-D-glycero-hexopyranoside] here?
**A.** Its value is “More active”.

**Q.** With `CC(=O)N[C@H]1C(O)O[C@H](CO)[C@@H](O)[C@@H]1O[C@H](C)C(=O)N[C@@H](C)C(=O)N[C@H](CCC(=O)O)C(N)=O` (stereo partly drawn) [Compound 40, (4R)-4-((2S)-2-((2R)-2-((3R,4R,5S,6R)-3-acetamido-2,5-dihydroxy-6-(hydroxymethyl)tetrahydro-2H-pyran-4-yloxy)propanamido)propanamido)-5-amino-5-oxopentanoic acid] as the compound, how does the “Observation (Compound “Negatives”)” value (TLR4) read?
**A.** Its value is “Less active, huddled in corner”.

**Q.** Which “Observation (Compound “Hits”)” value (TLR4) does the source give for `CC(=O)NC1C(O)OC(CO)C(OC2OC(C)C(O)C(O)C2O)C1OC1OC(CO)C(O)C(O)C1O` (centres unmarked) [Compound 45, 2-(acetylamino)-2-deoxy-4-O-(6-deoxyhexopyranosyl)-3-O-hexopyranosylhexopyranose] here?
**A.** The value was “More active, crawled over other mice, less piloerection”.

**Q.** With `CC(=O)CC1OC(OC2C(NC(C)=O)C(O)OC(CO)C2OS(=O)(=O)O)C(O)C(O)C1O` [Compound 43, 2-(acetylamino)-2-deoxy-3-O-(6,8-dideoxy-beta-L-glycero-octopyranosyl-7-ulose)-4-O-sulfo-L-erythro-hexopyranose] as the compound, how does the “Observation (Compound “Hits”)” value (TLR4) read?
**A.** Its value is “More active, crawled over other mice, less piloerection”.

**Q.** With `CCO[C@@H]1O[C@H](CO)[C@@H](O)[C@H](O)[C@H]1NC(C)=O` [Compound 54, ethyl 2-(acetylamino)-2-deoxy-beta-D-glycero-hexopyranoside] as the compound, how does the “Observation (Compound “Hits”)” value (TLR4) read?
**A.** The value was “Less piloerection, less tachypnea”.
